Source: paper PMC10135964, “One Scaffold, Two Conformations: The Ring-Flip of the Messenger InsP8 Occurs under Cytosolic Conditions” (Biomolecules, 2023)
Read-outs that look alike come from different tables or passages of the source.

Key:
[1] = 1H,13C BIRD-HMQC NMR quantification of axial vs. equatorial conformer; type: physicochemical; conditions: 50 µM, 130 mM KCl, 10 mM NaCl, 4 °C
Method: Samples for HMQC-NMR studies contained 50 µM ^13C6-labeled InsPs (InsP6/5PP-InsP5/InsP8), 2 mM bis-tris-propane, 130 mM KCl, 10 mM NaCl and 0/50/250 µM MgCl2 in D2O.
BIRD-HMQC NMR spectra were recorded at 277 K and 600 MHz (^1H frequency) on a Bruker AV-III NMR spectrometer (Bruker Biospin, Rheinstetten, Germany) using cryogenically cooled 5 mm QCI-triple resonance probe equipped with one-axis self-shielded gradients. The spectrometer was operated using topspin 3.5 pl6 software. Instrument temperature was calibrated against […] according to Findeisen et al.. Acquisition parameters were SW(^13C): 60–90 ppm, NS: 128, TD(^13C): 64.
BIRD-HMQC spectra were recorded at 277 K as described above, with samples containing 200 µM InsPs, 130 mM KCl, 10 mM NaCl, 2mM BTP in D2O. pH was set to pH* 9.5 for InsP6, pH* 8.8 for 5PP-InsP5 and pH* 8.5 for InsP8 (pH = 0.929 × pH* + 0.42 [35]). NOESY-HMQC spectra of the same samples were subsequently recorded using mixing times of 80 ms for InsP6 and 5PP-InsP5 and 200 ms for InsP8. Conformational exchange on the time-scale of the experiment created cross-peaks between corresponding peaks in different conformations, which allowed us to assign each peak of the equatorial conformer to its axial counterpart.

[2] = parameters: method as in PMID 27460418, PMID 15708805, doi:10.1016/j.molstruc.2007.03.035; conditions: Potentiometry (37 °C); equation as printed refers to InsP8 complexes; cited from earlier work
[3] = parameters: method as in PMID 27460418, PMID 15708805, doi:10.1016/j.molstruc.2007.03.035; conditions: 31P NMR (22 °C); equation as printed refers to InsP8 complexes; cited from earlier work
[4] = 1H,13C BIRD-HMQC NMR quantification of axial vs. equatorial conformer; type: physicochemical; conditions: pH* 8.5, 5 equiv. Ca2+, 130 mM KCl, 10 mM NaCl
[5] = parameters: method as in doi:10.1351/pac199163071015; conditions: 150 mM NaCl, 37 °C; cited from earlier work
[6] = pH* 9.5, without divalent cations

O=P(O)(O)O[C@H]1[C@H](OP(=O)(O)O)[C@@H](OP(=O)(O)O)[C@H](OP(=O)(O)O)[C@@H](OP(=O)(O)O)[C@H]1OP(=O)(O)O [InsP6]
proportion in axial conformation ([1]; pH* 9.0, 1 equiv. Mg2+): about 30% | proportion in axial conformation ([1]; pH* 9.0, without divalent cations): traces | proportion in axial conformation ([1]; pH* 9.5, 1 equiv. Mg2+): ~90% | proportion in axial conformation [1, 6]: less than half | log K, 3 K^+ + H4L^10− ↔ [K3(H4L)]^7− [2]: 3.36(5) | log K, 4 K^+ + H3L^11− ↔ [K4(H3L)]^7− [2]: 5.42(5) | log K, L^14− + 2 H^+ ↔ H2L^12− [2]: 21.3(1) | log K, L^14− + 3 H^+ ↔ H3L^11− [2]: 31.63(6) | log K, L^14− + 4 H^+ ↔ H4L^10− [2]: 40.42(6) | log K, L^14− + 5 H^+ ↔ H5L^9− [2]: 47.32(6) | log K, L^14− + 6 H^+ ↔ H6L^8− [2]: 53.04(7) | log K, L^14− + 7 H^+ ↔ H7L^7− [2]: 56.14(9) | log K, L^14− + H^+ ↔ HL^13− [2]: 10.8(1)

O=P(O)(O)CP(=O)(O)O[C@H]1[C@H](OP(=O)(O)O)[C@@H](OP(=O)(O)O)[C@@H](OP(=O)(O)O)[C@@H](OP(=O)(O)O)[C@@H]1OP(=O)(O)O [5PCP-InsP5]
log K, 2 K^+ + H5L^9− ↔ [K2(H5L)]^7− [3]: 2.79(7) | log K, 3 K^+ + H4L^10− ↔ [K3(H4L)]^7− [3]: 3.94(4) | log K, 4 K^+ + H2L^12− ↔ [K4(H2L)]^8− [3]: 4.61(3) | log K, 4 K^+ + H3L^11− ↔ [K4(H3L)]^7− [3]: 4.50(5) | log K, 5 K^+ + HL^13− ↔ [K5(HL)]^8− [3]: 6.57(3) | log K, L^14− + 2 H^+ ↔ H2L^12− [3]: 22.42(2) | log K, L^14− + 3 H^+ ↔ H3L^11− [3]: 32.26(2) | log K, L^14− + 4 H^+ ↔ H4L^10− [3]: 40.94(2) | log K, L^14− + 5 H^+ ↔ H5L^9− [3]: 47.67(2) | log K, L^14− + 6 H^+ ↔ H6L^8− [3]: 51.93(2) | log K, L^14− + 7 H^+ ↔ H7L^7− [3]: 55.64(2) | log K, L^14− + H^+ ↔ HL^13− [3]: 11.48(1) | log K, Mg^2+ + H2L^12− + 3 K^+ ↔ [MgK3(H2L)]^7− [3]: 9.75(7) | log K, Mg^2+ + H4L^10− + 2 K^+ ↔ [MgK2(H4L)]^6− [3]: 6.96(7) | log K, Mg^2+ + H5L^9− + K^+ ↔ [MgK(H5L)]^6− [3]: 5.26(7) | log K, Mg^2+ + H6L^8− ↔ [Mg(H6L)]^6− [3]: 4.71(7) | log K, Mg^2+ + HL^13− + 4 K^+ ↔ [MgK4(HL)]^7− [3]: 11.64(5)

O=P(O)(O)O[C@H]1[C@@H](OP(=O)(O)O)[C@H](OP(=O)(O)O)[C@@H](OP(=O)(O)OP(=O)(O)O)[C@H](OP(=O)(O)O)[C@H]1OP(=O)(O)O [5PP-InsP5]
proportion in axial conformation ([1]; pH* 8.5 (=pH 8.3) and higher, 5 equiv. Mg2+): exclusively the axial conformation | proportion in axial conformation ([1]; pH* 8.5, without divalent cations): about 10% | proportion in axial conformation [1, 6]: only detected in the axial conformation | proportion in axial conformation [4]: About 60%

Nc1ncnc2c1ncn2[C@@H]1O[C@H](COP(=O)(O)OP(=O)(O)OP(=O)(O)O)[C@@H](O)[C@H]1O [ATP]
log(K), Mg^2+ + ATP^4− → [MgATP]^2− [5]: 4.34 | log(K), Mg^2+ + HATP^3− → [Mg(HATP)]^− [5]: 2.39
